Results published in patent US6737383B1, “Herbicidal oxadiazolidines” (priority 1999, dated 2004).

Columns and labels:
giant foxtail = experiment: Test B pre/postemergence giant foxtail; format: in vivo, Setaria faberii
Procedure, shortened: (§1)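 Test chemicals in a non-phytotoxic solvent mixture with surfactant were sprayed preemergence onto planted seeds and postemergence onto plants 2 to 18 cm tall (1- to 4-leaf stage). After twelve to sixteen days in a greenhouse, injury was visually rated against untreated controls from 0 (no effect) to 10 (complete control).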

wheat = experiment: Test B pre/postemergence wheat; format: in vivo, Triticum aestivum
Procedure, shortened: as §1

purple nutsedge = experiment: Test B pre/postemergence purple nutsedge; format: in vivo, Cyperus rotundus
Procedure, shortened: as §1

corn = experiment: Test B pre/postemergence corn; format: in vivo, Zea mays
Procedure, shortened: as §1

velvetleaf = experiment: Test B pre/postemergence velvetleaf; format: in vivo, Abutilon theophrasti
Procedure, shortened: as §1

rape = experiment: Test B pre/postemergence rape; format: in vivo, Brassica napus
Procedure, shortened: as §1

wild oat = experiment: Test B pre/postemergence wild oat; format: in vivo, Avena fatua
Procedure, shortened: as §1

soybean = experiment: Test B pre/postemergence soybean; format: in vivo, Glycine max
Procedure, shortened: as §1

surinam grass = experiment: Test B pre/postemergence surinam grass; format: in vivo, Brachiaria decumbens
Procedure, shortened: as §1

bedstraw = experiment: Test B pre/postemergence bedstraw; format: in vivo, Galium aparine
Procedure, shortened: as §1

sugar beet = experiment: Test B pre/postemergence sugar beet; format: in vivo, Beta vulgaris
Procedure, shortened: as §1

crabgrass = experiment: Test B pre/postemergence crabgrass; format: in vivo, Digitaria sanguinalis
Procedure, shortened: as §1

cocklebur = experiment: Test B pre/postemergence cocklebur; format: in vivo, Xanthium strumarium
Procedure, shortened: as §1

pigweed = experiment: Test B pre/postemergence pigweed; format: in vivo, Amaranthus retroflexus
Procedure, shortened: as §1

blackgrass = experiment: Test B pre/postemergence blackgrass; format: in vivo, Alopecurus myosuroides
Procedure, shortened: as §1

morningglory = experiment: Test B pre/postemergence morningglory; format: in vivo, Ipomoea hederacea
Procedure, shortened: as §1

[1] = Postemergence, Rate 62 g/ha, scale 0 to 10, 0 is no effect, 10 is complete control
[2] = Postemergence, Rate 125 g/ha, scale of 0 to 10 where 0 is no effect and 10 is complete control
[3] = Preemergence, Rate 125 g/ha, scale of 0 to 10 where 0 is no effect and 10 is complete control
[4] = Preemergence, Rate 250 g/ha, scale 0 (no effect) to 10 (complete control)
[5] = Rate 62 g/ha, Preemergence, scale 0 to 10
[6] = Rate 250 g/ha, Postemergence, scale 0 to 10, 0 is no effect, 10 is complete control
[7] = Rate 500 g/ha, Postemergence, scale 0 to 10, 0 is no effect, 10 is complete control
[8] = Rate 500 g/ha, Preemergence, scale 0 to 10 (0 no effect, 10 complete control)

CC(C)N(C(=O)n1oc(=O)n(C(C)C2=NOCC2)c1=O)c1ccc(Cl)cc1 (racemic) [Compound 759]
2: Plant response rating, Wheat (wheat; [3]) | Plant response rating, Velvetleaf (velvetleaf; [1]) | Wild oats plant response rating (wild oat; [6]) | Plant response rating, Crabgrass (crabgrass; [1]) | Cocklebur plant response rating (cocklebur; [7]) | Plant response rating, Redroot pigweed (pigweed; [3])
5: Giant foxtail plant response rating (giant foxtail; [2]) | Wild oats plant response rating (wild oat; [4]) | Sugarbeets plant response rating (sugar beet; [8]) | Blackgrass plant response rating (blackgrass; [2]) | Plant response rating, Blackgrass (blackgrass; [3]) | Blackgrass plant response rating (blackgrass; [4])
0: Plant response rating, Wheat (wheat; [1]) | Wheat plant response rating (wheat; [5]) | Wheat plant response rating (wheat; [6]) | Wheat plant response rating (wheat; [7]) | Plant response rating, Nutsedge (purple nutsedge; [1]) | Nutsedge plant response rating (purple nutsedge; [2]) | Plant response rating, Nutsedge (purple nutsedge; [3]) | Nutsedge plant response rating (purple nutsedge; [4]) | Nutsedge plant response rating (purple nutsedge; [5]) | Nutsedge plant response rating (purple nutsedge; [6]) | Nutsedge plant response rating (purple nutsedge; [7]) | Nutsedge plant response rating (purple nutsedge; [8]) | Plant response rating, Corn (corn; [1]) | Corn plant response rating (corn; [2]) | Plant response rating, Corn (corn; [3]) | Corn plant response rating (corn; [4]) | Corn plant response rating (corn; [5]) | Corn plant response rating (corn; [6]) | Corn plant response rating (corn; [7]) | Corn plant response rating (corn; [8]) | Plant response rating, Velvetleaf (velvetleaf; [3]) | Velvetleaf plant response rating (velvetleaf; [4]) | Velvetleaf plant response rating (velvetleaf; [5]) | Velvetleaf plant response rating (velvetleaf; [8]) | Plant response rating, Rape (rape; [1]) | Rape plant response rating (rape; [2]) | Plant response rating, Rape (rape; [3]) | Rape plant response rating (rape; [4]) | Rape plant response rating (rape; [5]) | Rape plant response rating (rape; [6]) | Rape plant response rating (rape; [7]) | Plant response rating, Wild oats (wild oat; [1]) | Wild oats plant response rating (wild oat; [5]) | Plant response rating, Soybean (soybean; [3]) | Soybean plant response rating (soybean; [4]) | Soybean plant response rating (soybean; [5]) | Soybean plant response rating (soybean; [8]) | Plant response rating, B. signalgrass (surinam grass; [1]) | Plant response rating, Bedstraw (bedstraw; [1]) | Plant response rating, Bedstraw (bedstraw; [3]) | Bedstraw plant response rating (bedstraw; [4]) | Bedstraw plant response rating (bedstraw; [5]) | Bedstraw plant response rating (bedstraw; [8]) | Plant response rating, Sugarbeets (sugar beet; [1]) | Plant response rating, Sugarbeets (sugar beet; [3]) | Sugarbeets plant response rating (sugar beet; [5]) | Sugarbeets plant response rating (sugar beet; [6]) | Sugarbeets plant response rating (sugar beet; [7]) | Plant response rating, Cocklebur (cocklebur; [1]) | Cocklebur plant response rating (cocklebur; [2]) | Plant response rating, Cocklebur (cocklebur; [3]) | Cocklebur plant response rating (cocklebur; [4]) | Cocklebur plant response rating (cocklebur; [5]) | Cocklebur plant response rating (cocklebur; [8]) | Plant response rating, Redroot pigweed (pigweed; [1]) | Redroot pigweed plant response rating (pigweed; [2]) | Redroot pigweed plant response rating (pigweed; [5]) | Redroot pigweed plant response rating (pigweed; [6]) | Plant response rating, Morningglory (morningglory; [3]) | Morningglory plant response rating (morningglory; [4]) | Morningglory plant response rating (morningglory; [5]) | Morningglory plant response rating (morningglory; [8])
4: Rape plant response rating (rape; [8]) | Plant response rating, Wild oats (wild oat; [3]) | Sugarbeets plant response rating (sugar beet; [4]) | Crabgrass plant response rating (crabgrass; [2]) | Redroot pigweed plant response rating (pigweed; [7]) | Redroot pigweed plant response rating (pigweed; [8]) | Plant response rating, Blackgrass (blackgrass; [1]) | Blackgrass plant response rating (blackgrass; [5]) | Morningglory plant response rating (morningglory; [7])
3: Plant response rating, Giant foxtail (giant foxtail; [1]) | Wheat plant response rating (wheat; [4]) | Wild oats plant response rating (wild oat; [7]) | Plant response rating, Soybean (soybean; [1]) | Soybean plant response rating (soybean; [6]) | Soybean plant response rating (soybean; [7]) | B. signalgrass plant response rating (surinam grass; [2]) | B. signalgrass plant response rating (surinam grass; Preemergence, Rate 62 g/ha, scale of 0 to 10 where 0 is no effect and 10 is complete control) | Plant response rating, B. signalgrass (surinam grass; [3]) | Redroot pigweed plant response rating (pigweed; [4]) | Plant response rating, Morningglory (morningglory; [1]) | Morningglory plant response rating (morningglory; [2]) | Morningglory plant response rating (morningglory; [6])
6: Velvetleaf plant response rating (velvetleaf; [6]) | Velvetleaf plant response rating (velvetleaf; [7]) | B. signalgrass plant response rating (surinam grass; [6])
7: B. signalgrass plant response rating (surinam grass; [7]) | Plant response rating, Crabgrass (crabgrass; [3]) | Crabgrass plant response rating (crabgrass; [5]) | Blackgrass plant response rating (blackgrass; [6])
8: Giant foxtail plant response rating (giant foxtail; [6]) | Giant foxtail plant response rating (giant foxtail; [7]) | Wheat plant response rating (wheat; [8]) | Wild oats plant response rating (wild oat; [8]) | B. signalgrass plant response rating (surinam grass; [4]) | B. signalgrass plant response rating (surinam grass; [8]) | Crabgrass plant response rating (crabgrass; [4]) | Crabgrass plant response rating (crabgrass; [6]) | Crabgrass plant response rating (crabgrass; [7]) | Blackgrass plant response rating (blackgrass; [7]) | Blackgrass plant response rating (blackgrass; [8])
10: Giant foxtail plant response rating (giant foxtail; [4]) | Giant foxtail plant response rating (giant foxtail; [8])
1: Cocklebur plant response rating (cocklebur; [6])
9: Plant response rating, Giant foxtail (giant foxtail; [3]) | Giant foxtail plant response rating (giant foxtail; [5]) | Crabgrass plant response rating (crabgrass; [8])
